Results published in ChEMBL document CHEMBL5247647, “Phenothiazine-Based LSD1 Inhibitor Promotes T-Cell Killing Response of Gastric Cancer Cells” (J Med Chem, 2023).
Active and inactive are the calls of the source. The calls are words filed in the database; no cut-off is given here.

Assays:
[1] = molecular target: T1, Lysine-specific histone demethylase 1A (Homo sapiens, UniProt O60341); experiment: Inhibition of human LSD1 in human BGC-823 cells assessed as inhibition of H3K4me3 demethylation at 5 to 20 uM incubated for 5 days by Western blot anlaysis; assay type: cell-based; conditions: dose 5-20 µM, time 5.0 day
[2] = molecular target: Programmed cell death protein 1/Programmed cell death 1 ligand 1 (Homo sapiens) (UniProt Q15116+Q9NZQ7); experiment: Inhibition of PD-L1/PD-1 interaction in human BGC-823 cells assessed as decrease in binding of PD-1 to cell membrane at 5 to 20 uM incubated for 5 days followed by recombinant PD-1-Fc protein addition by confocal microscopy analysis; assay type: cell-based; conditions: dose 5-20 µM, time 5.0 day
BGC-823 [3] = experiment: Downregulation of PD-L1 expression in human BGC-823 cell membrane at 5 to 20 uM incubated for 5 days by Western blot anlaysis; assay type: functional, cell membranes; conditions: dose 5-20 µM, time 5.0 day
[4] = molecular target: T1, Lysine-specific histone demethylase 1A; experiment: Inhibition of recombinant LSD1 (unknown origin) expressed in Escherichia coli BL21 (DE3) using H3K4me2 peptide as substrate incubated for 30 mins by fluorescence based microplate reader assay
[5] = Toxicity against 615 mouse xenografted with mouse MFC cells in assessed as pathological changes in lungs at 10 to 50 mg/kg, po for 14 days by Hematoxylin and Eosin staining based microscopic analysis; assay type: organism-based; conditions: in vivo, 336 h, dose 10-50 mg/kg, time 14 day
[6] = molecular target: T2, Lysine-specific histone demethylase 2 (Homo sapiens) (UniProt Q8NB78); experiment: Inhibition of recombinant LSD2 (unknown origin) at 10 uM
T2 sequence (whole entry): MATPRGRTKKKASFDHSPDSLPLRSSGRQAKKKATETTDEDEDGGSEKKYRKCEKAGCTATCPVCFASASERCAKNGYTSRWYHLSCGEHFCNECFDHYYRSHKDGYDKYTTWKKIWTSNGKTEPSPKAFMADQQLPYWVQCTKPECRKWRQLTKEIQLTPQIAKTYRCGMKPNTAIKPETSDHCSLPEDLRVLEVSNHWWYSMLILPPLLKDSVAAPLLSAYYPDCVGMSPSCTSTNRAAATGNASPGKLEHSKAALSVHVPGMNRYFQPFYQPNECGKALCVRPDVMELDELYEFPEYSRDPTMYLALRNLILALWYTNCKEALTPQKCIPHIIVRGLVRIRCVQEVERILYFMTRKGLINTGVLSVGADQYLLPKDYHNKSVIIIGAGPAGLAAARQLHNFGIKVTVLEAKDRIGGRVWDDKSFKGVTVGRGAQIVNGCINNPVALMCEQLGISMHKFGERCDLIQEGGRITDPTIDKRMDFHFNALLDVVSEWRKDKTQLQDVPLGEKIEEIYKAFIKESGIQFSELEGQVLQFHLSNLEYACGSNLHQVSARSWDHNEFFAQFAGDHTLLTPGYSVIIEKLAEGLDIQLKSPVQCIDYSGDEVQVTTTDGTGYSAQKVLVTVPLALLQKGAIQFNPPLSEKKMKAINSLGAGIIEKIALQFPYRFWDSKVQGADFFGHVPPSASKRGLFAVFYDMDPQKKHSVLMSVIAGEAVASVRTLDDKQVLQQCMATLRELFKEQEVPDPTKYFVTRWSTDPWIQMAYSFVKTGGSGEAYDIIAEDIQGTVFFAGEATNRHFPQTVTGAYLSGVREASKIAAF

BGC-823 [7] = experiment: Downregulation of PD-L1 expression in human LSD1 knockout BGC-823 cells transfected with wild type LSD1 plasmid at 20 uM incubated for 5 days by Western blot anlaysis; assay type: functional, cell-based; conditions: time 5.0 day
MAO-B = molecular target: T3, MAO-B (Homo sapiens, UniProt P27338); experiment: Inhibition of recombinant human MAO-B at 10 uM
T3 sequence (P27338 whole entry): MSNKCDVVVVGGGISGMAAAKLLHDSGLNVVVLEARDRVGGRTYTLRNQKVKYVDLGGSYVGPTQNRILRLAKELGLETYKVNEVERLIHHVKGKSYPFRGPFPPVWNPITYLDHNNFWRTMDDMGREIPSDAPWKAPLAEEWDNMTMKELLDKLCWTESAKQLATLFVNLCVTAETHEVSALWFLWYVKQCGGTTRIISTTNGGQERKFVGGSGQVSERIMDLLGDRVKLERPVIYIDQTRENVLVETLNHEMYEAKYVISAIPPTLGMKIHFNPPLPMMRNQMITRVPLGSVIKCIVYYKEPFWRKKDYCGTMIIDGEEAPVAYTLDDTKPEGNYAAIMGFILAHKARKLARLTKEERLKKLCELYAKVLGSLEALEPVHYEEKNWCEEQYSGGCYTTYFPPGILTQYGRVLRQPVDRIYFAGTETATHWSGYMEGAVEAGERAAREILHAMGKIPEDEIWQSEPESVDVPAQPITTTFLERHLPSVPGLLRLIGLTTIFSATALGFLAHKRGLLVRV

BGC-823 [8] = experiment: Anticancer activity against human BGC-823 cells assessed as increase in CD3/CD28 activated T-cell killing response by measuring TNFalpha level at 5 to 20 uM incubated for 5 days by Sandwich ELISA; assay type: functional, cell-based; conditions: dose 5-20 µM, time 5.0 day
BGC-823 [9] = experiment: Downregulation of PD-L1 expression in human BGC-823 cells at 5 to 20 uM incubated for 5 days by Western blot anlaysis; assay type: functional, cell-based; conditions: dose 5-20 µM, time 5.0 day
MFC [10] = experiment: Antitumor activity against mouse MFC cells xenografted in 615 mouse assessed as decrease in tumor weight at 10 to 50 mg/kg, po for 14 days; assay type: functional, organism-based; conditions: dose 10-50 mg/kg, time 14.0 day
MFC [11] = experiment: Antitumor activity against mouse MFC cells xenografted in 615 mouse assessed as decrease in intratumoral PD-L1 expression at 10 to 50 mg/kg, po for 14 days by Western blot analysis; assay type: functional, organism-based; conditions: dose 10-50 mg/kg, time 14.0 day
BGC-823 [12] = experiment: Downregulation of PD-L1 expression in human LSD1 knockout BGC-823 cells at 5 to 20 uM incubated for 5 days by Western blot anlaysis; assay type: functional, cell-based; conditions: dose 5-20 µM, time 5.0 day
BGC-823 [13] = experiment: Anticancer activity against human PD-L1 knockout BGC-823 cells assessed as increase in CD3/CD28 activated T-cell killing response at 5 to 20 uM incubated for 5 days by DAPI staining based assay; assay type: functional; conditions: dose 5-20 µM, time 5.0 day
MFC [14] = experiment: Downregulation of PD-L1 expression in mouse MFC cell membrane at 5 to 20 uM incubated for 5 days by Western blot anlaysis; assay type: functional, cell membranes; conditions: dose 5-20 µM, time 5.0 day
[15] = Toxicity against 615 mouse xenografted with mouse MFC cells in assessed as pathological changes in heart at 10 to 50 mg/kg, po for 14 days by Hematoxylin and Eosin staining based microscopic analysis; assay type: organism-based; conditions: in vivo, 336 h, dose 10-50 mg/kg, time 14 day
[16] = molecular target: T1, Lysine-specific histone demethylase 1A; experiment: Inhibition of human LSD1 in human BGC-823 cells assessed as inhibition of H3K4me1 demethylation at 5 to 20 uM incubated for 5 days by Western blot anlaysis; assay type: cell-based; conditions: dose 5-20 µM, time 5.0 day
MFC [17] = experiment: Antiproliferative activity against mouse MFC cells assessed as inhibition of cell proliferation incubated for 48 hrs by SRB assay; assay type: functional, cell-based
MFC [18] = experiment: Downregulation of PD-L1 expression in mouse LSD1 knockout MFC cells at 5 to 20 uM incubated for 5 days by Western blot anlaysis; assay type: functional, cell-based; conditions: dose 5-20 µM, time 5.0 day
MAO-A = molecular target: T4, MAO-A (Homo sapiens, UniProt P21397); experiment: Inhibition of recombinant human MAO-A at 10 uM
T4 sequence (P21397 whole entry): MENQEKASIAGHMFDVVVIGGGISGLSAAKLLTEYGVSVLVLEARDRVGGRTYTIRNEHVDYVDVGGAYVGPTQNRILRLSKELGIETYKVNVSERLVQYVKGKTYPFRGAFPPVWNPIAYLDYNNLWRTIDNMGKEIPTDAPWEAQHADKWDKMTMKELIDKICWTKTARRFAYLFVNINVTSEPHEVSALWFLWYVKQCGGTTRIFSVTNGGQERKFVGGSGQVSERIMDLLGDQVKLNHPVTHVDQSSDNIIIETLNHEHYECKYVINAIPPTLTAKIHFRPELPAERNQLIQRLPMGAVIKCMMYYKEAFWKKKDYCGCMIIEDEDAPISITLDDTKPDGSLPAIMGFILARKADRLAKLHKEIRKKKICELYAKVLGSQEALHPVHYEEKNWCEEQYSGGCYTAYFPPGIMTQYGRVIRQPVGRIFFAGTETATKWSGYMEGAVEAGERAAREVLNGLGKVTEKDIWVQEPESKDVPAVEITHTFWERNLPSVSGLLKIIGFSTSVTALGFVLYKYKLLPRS

BGC-823 [19] = experiment: Downregulation of PD-L1 expression in human LSD1 knockout BGC-823 cells transfected with […] K661A mutant plasmid at 20 uM incubated for 5 days by Western blot anlaysis; assay type: functional, cell-based; conditions: time 5.0 day
[20] = molecular target: T1, Lysine-specific histone demethylase 1A; experiment: Inhibition of human LSD1 in human BGC-823 cells assessed as inhibition of H3K4me2 demethylation at 5 to 20 uM incubated for 5 days by Western blot anlaysis; assay type: cell-based; conditions: dose 5-20 µM, time 5.0 day

## c1ccc2c(c1)Sc1ccccc1N2CCN1CCOCC1
[1]
  inhibition: inactive
[2]
  inhibition: Dose-Dependent Effect
BGC-823 [3]
  Activity: Dose-Dependent Effect
[4]
  IC50: 247 nM
[5]
  Activity: Non-Toxic
[6]
  inhibition: > 10%
BGC-823 [7]
  Activity: Active
MAO-B
  inhibition at 10 µM: < 10%
BGC-823 [8]
  Activity: Active
BGC-823 [9]
  Activity: Dose-Dependent Effect
MFC [10]
  Activity: Active
MFC [11]
  Activity: Dose-Dependent Effect
BGC-823 [12]
  Activity: inactive
BGC-823 [13]
  Activity: inactive
MFC [14]
  Activity: Dose-Dependent Effect
[15]
  Activity: Non-Toxic
[16]
  inhibition: Active
MFC [17]
  Activity: inactive
MFC [18]
  Activity: inactive
MAO-A
  inhibition at 10 µM: < 10%
BGC-823 [19]
  Activity: inactive
[20]
  inhibition: Active
